According to US20090263356A1, “ANTI-ANGIOGENIC COMPOSITION COMPRISING GRAIN-DERIVED COMPONENT AS ACTIVE INGREDIENT” (SANWA SHURUI CO., LTD., priority 2005, published 2009):

What was measured:
[1] = test system: Human vascular endothelial cells and fibroblasts (co-culture); assay: Experiment on vascularization inhibition (lumen formation, KURABO kit), Experiments 2 and 5; assay type: cell-based; details: Suramin 50 μM final, VEGF-A 5 ng/ml, 11-day culturing
Experimental: (§1) 1,000 μg of each specimen was weighed and dissolved in 1 ml of a culture medium. The resulting culture medium was sterilized by filtration (0.22 μm), diluted 10 fold (three times), to prepare samples at concentrations of 10 μg/ml to 1,000 μg/ml.
Human vascular endothelial cells and fibroblasts were co-cultured at their optimal concentrations. At the proliferation state at an early stage of luminal formation, the individual samples were added for 11-day culturing (the culture media containing the samples were exchanged 4, 7 and 9 days later). […] As standards for the evaluation, VEGF-A promoting luminal formation was added at […], while suramin inhibiting luminal formation was added at 50 μM, in the same manner. A control was prepared without any addition. Regarding the effect on inhibiting vascularization, the formed lumen-like network structure was evaluated.
Method: A kit manufactured by KURABO was used for measurement. […] VEGF as a vascularization promoting factor and suramin as an agent for suppressing vascularization were concurrently present in a control, so as to compare the lumen formation state in the co-existence of VEGF and each sample.
Concentration of a sample added: 10, 100 and 1,000 μg/ml (Suramin was added in all of the cases at the same concentration; 50 μM)
VEGF-A as a vascularization-promoting factor was added at an amount of 5 ng/ml (as the final concentration) Suramin as a positive control with an observed effect on inhibiting vascularization was added at an amount of 50 μM (as the final concentration)
1,000 μg of each specimen was weighed and dissolved in 1 ml of a culture medium. The resulting culture medium was sterilized by filtration (0.22 μm) and diluted 10 fold (three times), to prepare samples at concentrations of 10 μg/ml to 1,000 μg/ml.
Concentration of a sample added: 10, 100 and 1000 μg/ml (Suramin was added in all of the cases at the same concentration; 50 μM)

[2] = test system: Human vascular endothelial cells and fibroblasts (co-culture); assay: Experiment on vascularization inhibition (luminal formation), Experiments 1 and 4; assay type: cell-based; details: suramin 25 μM final, VEGF-A 5 ng/ml, 11-day culturing; for AREA (area of vascular tube region): smaller = larger inhibition
Experimental: as §1, with “μg/ml as shown in Table 1 (the contents of the test samples for use in assessing the effect on inhibiting vascularization).” for “μg/ml.”
(§2) Human vascular endothelial cells and fibroblasts were co-cultured at their optimal concentrations. At the proliferation state at an early stage of luminal formation, the individual samples (1-1-1, the negative controls, the positive controls) were added for 11-day culturing (the culture media containing the samples were exchanged 4, 7 and 9 days later). […] So as to evaluate the effect on inhibiting vascularization, the formed lumen-like network structure was observed.
Photographs of the vascular tube tissues were incorporated as digital data, to measure the area of a vascular tube region (black region) at several points randomly selected to determine the effect on inhibiting vascularization.
VEGF-A as a vascularization-promoting factor was added at an amount of 5 ng/ml (as the final concentration) Suramin as a positive control with an observed effect on inhibiting vascularization was added at an amount of 25 μM (as the final concentration)
as §1, with “μg/ml as shown in Table 4 (the contents of test samples for assessing vascularization inhibitory effect).” for “μg/ml.”
as §2, with “Regarding” for “So as to evaluate”, “evaluated.” for “observed.”
Photographs of blood tube tissues were incorporated as digital data, to measure the area of the blood tube region (black part) at several positions randomly selected, to determine the inhibitory effect of vascularization.

Cc1ccc(C(=O)Nc2ccc(S(=O)(=O)O)c3cc(S(=O)(=O)O)cc(S(=O)(=O)O)c23)cc1NC(=O)c1cccc(NC(=O)Nc2cccc(C(=O)Nc3cc(C(=O)Nc4ccc(S(=O)(=O)O)c5cc(S(=O)(=O)O)cc(S(=O)(=O)O)c45)ccc3C)c2)c1 [Suramin, suramin]
AREA [1]: 30401
JOINT [1]: 413
LENGTH [1]: 6396
JOINT ([2]; listed as A3): 11
LENGTH ([2]; listed as A3): 4583
PATH ([2]; listed as A3): 107
JOINT ([2]; listed as A4): 16
LENGTH ([2]; listed as A4): 5311
PATH ([2]; listed as A4): 128
AREA (area of vascular tube region) ([2]; listed as A3): 27940
AREA (area of vascular tube region) ([2]; listed as A4): 33301
